From article PMC3161871, “Heteroarylketones inhibit astroglial interleukin-6 expression via a STAT3/NF-κB signaling pathway” (Journal of Neuroinflammation, 2011)

Columns and labels:
[1] = system: IL-6 release from U343 cells; assay: Dose-dependent stimulation of IL-6 release by OSM in U343 cells (ELISA); assay type: cell-based, human; conditions: U343 cells treated 24 h with OSM, ELISA of conditioned medium
Procedure: (§1) The human glioma cell line U343 [34] was maintained in DMEM containing 10% fetal bovine serum and 60 μg/ml gentamycin (Invitrogen, Darmstadt, Germany) at 37°C in a 10% CO2 atmosphere.
Measurements of IL-6 in conditioned medium and murine plasma samples were done by means of human- or murine-specific IL-6 Cytoset kits (Invitrogen, Darmstadt, Germany) according to manufacturer's protocols.
The dose- and time-dependent stimulation of IL-6 expression by OSM in U343 cells is characterized in figure 1. To analyze dose dependence of IL-6 release, U343 cells were treated for 24 hours with various concentrations of OSM followed by measurement of IL-6 protein concentrations in the conditioned medium by a specific ELISA. […] Therefore, all further investigations were performed with 100 ng/ml OSM. The highest dose of 200 ng/ml OSM led to 30-fold increase of IL-6 accumulation in the conditioned media in comparison to vehicle-treated cells.
Figure 1 OSM induces dose- and time-dependent IL-6 expression in human U343 glioma cells. OSM treatment leads to dose-dependent IL-6 release (A). U343 cells were stimulated with different concentrations of OSM as indicated. After 24 hours the conditioned medium was analyzed by IL-6-specific ELISA. […] IL-6 mRNA expression was analyzed by qRT-PCR (dotted line, black triangles) and IL-6 protein release by ELISA (solid line, black squares). […]

[2] = system: IL-6 mRNA expression in U343 cells; assay: OSM-induced IL-6 mRNA expression in U343 cells (qRT-PCR time course); assay type: cell-based, human; conditions: 100 ng/ml OSM
Procedure: as §1
Total RNA of cultured cells and homogenized mouse brain tissue samples was isolated using RNA isolation kit "NucleoSpin RNA II" from Macherey and Nagel. RNA quantity was measured by spectrophotometrical quantification (NanoDrop 2000, Peqlab, Erlangen, Germany). Total RNA (0.5 μg) was transcribed to cDNA using Superscript III and oligo-dT primer (Invitrogen, Darmstadt, Germany). Quantitative real-time PCR was performed with QuantiFast SYBR Green PCR Master mix (Qiagen, Hilden, Germany) using Rotorgene 3000 system (Corbett, Sydney, Australia). Gene expression was normalized to the expression of three reference genes glyceraldehyde 3-phosphate dehydrogenase (GAPDH), glucose-6-phosphate dehydrogenase (G6PDH) and hypoxanthine-guanine phosphoribosyltransferase (HPRT). Primers for PREP (5'-[…]-3'; 5'- […]-3') and IL-6 (5'-AAAGGACGTCACATTGCA-3'; 5'-[…]-3') were designed using the Primer3 Software (http://frodo.wi.mit.edu/). Data were analyzed by Rotorgene 3000 Software version 6.0 by comparative quantitation. The appropriate size of PCR products was confirmed by gel-electrophoresis stained with ethidium bromide.
To analyze the time-course of OSM-induced IL-6 expression, U343 cells were incubated with OSM for different periods of time as indicated in figure 1B. Amounts of IL-6 mRNA and protein were subsequently quantified by qRT-PCR and by ELISA, respectively. […] Significant induction of IL-6 protein was detected in the conditioned medium as early as 3 h post stimulation and reaching a maximum at 24 h.
To reveal whether bioactivity of HAK compounds is based on suppression of IL-6 protein biosynthesis or on interference with IL-6 mRNA expression OSM-treated U343 cells were incubated with 20 μM of compound HAK-2 for different periods of time. […] Therefore, it is very likely that the relevant molecular target of HAK compounds is involved in the OSM-induced signal transduction process not earlier than 6 h after onset of the stimulation.
Figure 4 Time course of OSM-induced IL-6 mRNA expression in U343 cells treated with compound HAK-2. […] U343 cells were stimulated with 100 ng/ml OSM and treated with 0.1% DMSO as solvent control (solid line, black triangle) or 20 μM HAK-2 (dashed line, white triangle). Samples were harvested at time points indicated to extract total RNA. IL-6 mRNA expression was analyzed by qRT-PCR. All data points are presented as mean ± SD, and were obtained from experiments carried out in quadruplicate. Statistical analysis were performed between control and HAK-2 samples from same time point. ns, not significant; ***p < 0.001.

EC50 of IL-6 release [1]: 0.0705 ± 0.02268 µg/mL
Substance: Oncostatin M [OSM, reference compound]
IL-6 mRNA induction, first peak ([2]; 1 h post stimulation): 6.5 fold
IL-6 mRNA induction, second peak ([2]; 16 h post stimulation): 5.5 fold
